The source of these data is patent US12458666B2 (DOUBLE BOND PHARMACEUTICALS AB, priority 2019, dated 2025).

For data set [1] the following is noted: for median ferritin level: thirteen patients who took study medication according to protocol for 12 weeks, baseline 42 (32-57.5); for Hemoglobin / hsCRP / Hepcidin / Transferrin / Iron / TSAT (transferrin saturation) / Ferritin: intention to treat, 100 mg tablet orally twice a day; for Hemoglobin: 20 patients, baseline 144; for hsCRP: baseline 2.0; for Hepcidin: baseline 2.5; for Transferrin: baseline 2.6; for Iron: baseline 13.5; for TSAT (transferrin saturation): baseline 20; for Ferritin: baseline 47. The protocol: Most of these patients were screened during the year 2018 until January 2019 were the target population. […] These 42 patients defined by inclusion and exclusion criteria for participation were called by phone and informed about the study. After having given oral and written consent to participate blood sampling was performed to confirm or reject the presence of non-anemic ID.
• All patients with a case record diagnosis of HF, both those with preserved EF or reduced EF were potentially eligible, provided there were no contraindications to participate. • The diagnosis of HF was on symptoms and an ECHO verified reduction of cardiac function, systolic and/or diastolic dysfunction. Those with an EF=<40% were classified as HFrEF and those with EF>40% as preserved HF.
(§1) The study was planned as an open pilot study without placebo control. The study was performed at the research unit at the department of Medicine-Geriatric, a special heart failure case record with laboratory data was filed before the start of the study, after six weeks and after 3 months (±2 weeks) at the end of study. Adverse reactions and side effects were registered at each visit.
Inofer® is an oral product against ID in a form of film-coated tablets. […] The patients are given one tablet ( )twice a day during a period of at least three months.
1 tablet was taken in the morning and 1 tablet was taken in the evening at bedtime for at least 3 months. The tablet was not taken with food.
Blood sampling was performed according to local and current guidelines. Blood was centrifuged, divided into aliquots and stored at minus 80° C. in a safe deposit box, Biobank Västerbotten, until analysis. Hemoglobin, CRP, ferritin, serum iron, TSAT and hepcidin were analyzed before start, at 6 weeks and 3 months after treatment.
Continuous variables are presented as means ±standard deviation for normally distributed values, median and interquartile range for skewed variables, and numbers and percentages for categorical variables. Due to skewed variables for ferritin and TSAT non-parametric test was used for related or independent data. Data were analysed using IBM SPSS Software version 24 (IBM Corp. Chicago, Illinois, USA).

How the values of data set [2] were obtained:
as §1

For data set [3] the following is noted: irrespective if iron was given orally or intravenously; cited from earlier work.
The conditions of data set [4]: cited from earlier work.
The conditions of data set [5]: cited from earlier work; for Ferritin level after treatment: HF, ejection fraction <40% and anaemia.
The conditions of data set [6]: long-term intravenous therapy; cited from earlier work.
The mark [7] stands for this setting: after oral iron succinate treatment.
[8] abbreviates: percentage of patients exhibiting the symptom in the study.

Like-named read-outs stand apart in the source and are kept apart here.

With `O=C([O-])CCC(=O)[O-].[Fe+2]` [iron succinate, ferrous succinate], in data set [1] (setting [7]), the “increase of ferritin levels in patients with HFpEF compared with HFrEF” value is on record as “about the same magnitude” and the “uptake (levels) in females compared with males” value is reported as “increased rather equally”. The median ferritin level in data set [1] (at 6 weeks) is on record as 83 (61-110.5) μg/L. The compound also had a median ferritin level in data set [1] (at 12 weeks) of 87 µg/L. In data set [1] (median at 6 weeks), this compound yielded a Hemoglobin of 138 g/L, a hsCRP of 2.0 mg/L and an Iron of 16.5 µmol/L. The compound further had a Hepcidin in data set [1] (median at 6 weeks, p=0.006) of 4.8 nmol/L. Besides, the Transferrin in data set [1] (median at 6 weeks, p=0.038) was 2.4 g/L. For the same compound, the “TSAT (transferrin saturation)” value in data set [1] (median at 6 weeks, p=0.046) is reported as 27%. In data set [1] (median at 6 weeks, p=0.009), this compound returned a Ferritin of 78 µg/L. For the same compound, in data set [1] (median at 12 weeks), the Hemoglobin is given as 142 g/L, the hsCRP was 1.9 mg/L and the Iron worked out at 16.0 µmol/L. The same compound returned a Hepcidin in data set [1] (median at 12 weeks, p=0.026) of 4.2 nmol/L. Further, the Transferrin in data set [1] (median at 12 weeks, p=0.009) worked out at 2.3 g/L. Further, the “TSAT (transferrin saturation)” value in data set [1] (median at 12 weeks, p=0.043) stood at 25%. Also, the Ferritin in data set [1] (median at 12 weeks, p=0.001) was found to be 85 µg/L. In data set [1] (one patient who stopped study medication after 3.5 weeks, baseline 16), the “TSAT at EOS” value is given as 21%. Moreover, the “ferritin level at EOS” value in data set [1] (one patient who stopped study medication after 3.5 weeks, baseline 198) was 237 µg/L. Besides, the “increase of ferritin level from baseline to EOS” value (“increase … to EOS” below) in data set [1] (one patient who took only one tablet per day for 2.5 weeks) is 38%. Moreover, in data set [1] (one patient who took only one tablet per day for 6 weeks), the “increase … to EOS” value was found to be 174%. Besides, in data set [1] (one patient who took only one tablet per day for 7.5 weeks), the “increase … to EOS” value was determined as 95%. In data set [2] (of 20 patients), the “patients who stopped study medication because of vomiting or diarrhea” value is “Three” and the “patients who stopped study medication before EOS” value is on record as “four”. For the same compound, in data set [2] (setting [8]), the “Breathlessness, %” value was determined as 90%; the “Constipation, %” value is recorded as 20%; the “Diarrhea, %” value is 5%; the “Stomic pain, %” value was found to be 10%. In data set [2] (setting [8]), the “Tiredness, %” value is reported as 80%. Further, the “uptake compared to other iron compounds” value in data set [3] is recorded as “most favourable uptake”.
iron polysaccharide: in data set [4] (high dose oral, 16 weeks, HFrEF), the “uptake in iron deposits” value is on record as “marginal uptake”. In addition, the “exercise capacity over 16 weeks” value in data set [4] (high dose oral, HFrEF) is listed as “did not improve exercise capacity”. Further, the TSAT increase in data set [4] (oral 150 mg twice daily for 16 weeks, HFrEF (<40%) and iron deficiency, CI −3 to 7, placebo 0, p=0.003) is 2%. Besides, the Ferritin increase in data set [4] (oral 150 mg twice daily for 16 weeks, HFrEF (<40%) and iron deficiency, CI −8 to 38, placebo 1) was 18 ng/mL.
Turning to `O=S(=O)([O-])[O-].[Fe+2]` [ferrous sulphate], the “increase of TSAT, oral vs. intravenous administration of iron” value in data set [5] (oral 200 mg 3 times a day compared with intravenous iron sucrose) is reported as “less”. The “Ferritin level after treatment” value in data set [5] (oral 200 mg 3 times a day, from 115±141) is 218 ± 189 ng/mL.
With iron sucrose, in data set [5] (intravenous 200 mg per week for 5 weeks, from 167±149), the “Ferritin level after treatment” value is 293 ± 270 ng/mL.
In the case of ferric carboxymaltose, the “symptomatic and morbidity effects in patients with HF” value in data set [6] was “beneficial symptomatic and morbidity effects”.
